Data from patent US8669271B2 (Boehringer Ingelheim International GmbH, priority 2010, dated 2014).

Molecular target: T1, human GPR119 (Homo sapiens, UniProt Q8TDV5)
T1 construct: expression vector for human GPR119 cDNA (Acc. No. NP_848566); expressed in transfected cells
T1 sequence (Q8TDV5 1-335): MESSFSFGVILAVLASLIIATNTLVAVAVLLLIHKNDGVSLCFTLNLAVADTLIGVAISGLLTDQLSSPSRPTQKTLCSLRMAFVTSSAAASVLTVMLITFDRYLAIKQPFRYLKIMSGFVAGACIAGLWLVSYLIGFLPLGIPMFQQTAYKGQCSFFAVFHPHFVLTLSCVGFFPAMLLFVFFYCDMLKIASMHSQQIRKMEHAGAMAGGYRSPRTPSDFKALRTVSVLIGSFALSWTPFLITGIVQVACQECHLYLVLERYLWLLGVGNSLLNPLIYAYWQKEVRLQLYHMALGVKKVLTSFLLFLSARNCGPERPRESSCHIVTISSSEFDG
Assay: AlphaScreen cAMP assay in Min-6/hGPR119 cells (activation of GPR119, intracellular cAMP)
Type: cell-based
Details: MIN6 cells stably transfected with human GPR119; cAMP by AlphaScreen after 45 minutes incubation at room temperature
Procedure: The compounds of formula I according to the invention modulate the activity of the G-protein-coupled receptor GPR119. The effect of the compounds on the activation of GPR119 and on the stimulation of intracellular cAMP concentration is determined using the AlphaScreen cAMP Assay Kit (Cat.No.#6760625R) made by PerkinElmer.
MIN6 cells [Miyazaki J et al. Endocrinology. 1990 July; 127(1):126-32] are stably transfected with an expression vector for human GPR119 cDNA (Acc. No. NP_848566). Min-6/hGPR119 cells are cultured in DMEM, 10% FBS, 50 μM β-mercaptoethanol, 0.3 mg/mL Geniticin, 2 mM GlutaMAX at 37° C. 5% CO2. For the assay, the cells are seeded in Optiplates (white, 384-well, 160W— barcoded, TC, sterile with lid, Cat.No.#6007688 (Perkin Elmer); 10000 cells/well; 50 μl). The plates covered with lids are then incubated for 24 hours at 37° C./5% CO2. After the medium is aspirated from the wells completely, 10 μl of the test compound are added, the compounds are diluted using stimulating buffer (140 mM NaCl, 3.6 mM KCl, 0.5 mM NaH2PO4, 0.5 mM MgSO4, 1.5 mM CaCl2, 10 mM Hepes, 5 mM NaHCO3; pH 7.4. 0.5 mM IBMX and 0.1% BSA, the final DMSO concentration is 1%). After 45 minutes incubation at room temperature (approx. 20° C.), the cAMP concentrations are determined using the AlphaScreen cAMP Assay Kit (Cat.No.#6760625R from PerkinElmer).

| SMILES | EC50 |
| --- | --- |
| CC(C)(C)OC(=O)N1CCC(C2Cc3cc(-c4ccc(C#N)nc4)ncc3O2)CC1 (stereo not shown) [Example 44, 4-[5-(6-Cyano-pyridin-3-yl)-2,3-dihydro-furo[2,3-c]pyridin-2-yl]-piperidine-1-carboxylic acid tert-butyl ester] | 30 nM |
| CC(C)(C)OC(=O)N1CCC(C2Cc3cc(-c4ccc(C#N)cc4)ncc3O2)CC1 (stereo not shown) [Example 46, 4-[5-(4-Cyano-phenyl)-2,3-dihydro-furo[2,3-c]pyridin-2-yl]-piperidine-1-carboxylic acid tert-butyl ester] | 15 nM |
| CC(C)(C)OC(=O)N1CCC(C2Cc3cc(-c4ccnc(F)c4)ncc3O2)CC1 (stereo not shown) [Example 47, 4-[5-(2-Fluoro-pyridin-4-yl)-2,3-dihydro-furo[2,3-c]pyridin-2-yl]-piperidine-1-carboxylic acid tert-butyl ester] | 8 nM |
| CC(C)(C)OC(=O)N1CCC(C2Cc3cc(-c4ccc(CS(C)(=O)=O)cc4)ncc3O2)CC1 (stereo not shown) [Example 49, 4-[5-(4-Methanesulfonylmethyl-phenyl)-2,3-dihydro-furo[2,3-c]pyridin-2-yl]-piperidine-1-carboxylic acid tert-butyl ester] | 22 nM |
| CC(C)(C)OC(=O)N1CCC(C2Cc3cc(-c4ccncc4F)ncc3O2)CC1 (stereo not shown) [Example 51, 4-[5-(3-Fluoro-pyridin-4-yl)-2,3-dihydro-furo[2,3-c]pyridin-2-yl]-piperidine-1-carboxylic acid tert-butyl ester] | 10 nM |
| COc1cc(-c2cc3c(cn2)OC(C2CCN(C(=O)OC(C)(C)C)CC2)C3)ccn1 (stereo not shown) [Example 53, 4-[5-(2-Methoxy-pyridin-4-yl)-2,3-dihydro-furo[2,3-c]pyridin-2-yl]-piperidine-1-carboxylic acid tert-butyl ester] | 122 nM |
| CC(C)(C)OC(=O)N1CCC(C2Cc3cc(-c4ccnc(C#N)c4)ncc3O2)CC1 (stereo not shown) [Example 55, 4-[5-(2-Cyano-pyridin-4-yl)-2,3-dihydro-furo[2,3-c]pyridin-2-yl]-piperidine-1-carboxylic acid tert-butyl ester] | 16 nM |
| CC(C)(C)OC(=O)N1CCC(C2Cc3cc(-c4ccnc(C(F)(F)F)c4)ncc3O2)CC1 (stereo not shown) [Example 56, 4-[5-(2-Trifluoromethyl-pyridin-4-yl)-2,3-dihydro-furo[2,3-c]pyridin-2-yl]-piperidine-1-carboxylic acid tert-butyl ester] | 222 nM |
| Cn1ccc(-c2cc3c(cn2)OC(C2CCN(C(=O)OC(C)(C)C)CC2)C3)cc1=O (stereo not shown) [Example 57, 4-[5-(1-Methyl-2-oxo-1,2-dihydro-pyridin-4-yl)-2,3-dihydro-furo[2,3-c]pyridin-2-yl]-piperidine-1-carboxylic acid tert-butyl ester] | 685 nM |
| CC(C)(C)OC(=O)N1CCC(C2Cc3cc(-c4ccncc4C#N)ncc3O2)CC1 (stereo not shown) [Example 59, 4-[5-(3-Cyano-pyridin-4-yl)-2,3-dihydro-furo[2,3-c]pyridin-2-yl]-piperidine-1-carboxylic acid tert-butyl ester] | 119 nM |
| CC(C)(C)OC(=O)N1CCC(C2Cc3cc(-n4ccncc4=O)ncc3O2)CC1 (stereo not shown) [Example 60, 4-[5-(2-Oxo-2H-pyrazin-1-yl)-2,3-dihydro-furo[2,3-c]pyridin-2-yl]-piperidine-1-carboxylic acid tert-butyl ester] | 522 nM |
| CS(=O)(=O)Cc1ccc(-c2cc3c(cn2)OC(C2CCN(C(=O)OC4CCC4)CC2)C3)cc1 (stereo not shown) [Example 61, 4-[5-(4-Methanesulfonylmethyl-phenyl)-2,3-dihydro-furo[2,3-c]pyridin-2-yl]-piperidine-1-carboxylic acid cyclobutyl ester] | 31 nM |
| CC(C)OC(=O)N1CCC(C2Cc3cc(-c4ccc(S(C)(=O)=O)cc4)ncc3O2)CC1 (stereo not shown) [Example 63, 4-[5-(4-Methanesulfonyl-phenyl)-2,3-dihydro-furo[2,3-c]pyridin-2-yl]-piperidine-1-carboxylic acid isopropyl ester] | 18 nM |
| CC1(OC(=O)N2CCC(C3Cc4cc(-c5ccc(CS(C)(=O)=O)cc5)ncc4O3)CC2)CC1 (stereo not shown) [Example 64, 4-[5-(4-Methanesulfonylmethyl-phenyl)-2,3-dihydro-furo[2,3-c]pyridin-2-yl]-piperidine-1-carboxylic acid 1-methyl-cyclopropyl ester] | 51 nM |
| CCS(=O)(=O)c1ccc(-c2cc3c(cn2)OC(C2CCN(C(=O)OC(C)(C)C)CC2)C3)cc1 (stereo not shown) [Example 66, 4-[5-(4-Ethanesulfonyl-phenyl)-2,3-dihydro-furo[2,3-c]pyridin-2-yl]-piperidine-1-carboxylic acid tert-butyl ester] | 12 nM |
| CC(=O)Nc1ccc(-c2cc3c(cn2)OC(C2CCN(C(=O)OC(C)(C)C)CC2)C3)cc1 (stereo not shown) [Example 67, 4-[5-(4-Acetylamino-phenyl)-2,3-dihydro-furo[2,3-c]pyridin-2-yl]-piperidine-1-carboxylic acid tert-butyl ester] | 13 nM |
| Cc1nccn1-c1cc2c(cn1)OC(C1CCN(C(=O)OC(C)(C)C)CC1)C2 (stereo not shown) [Example 70, 4-[5-(2-Methyl-imidazol-1-yl)-2,3-dihydro-furo[2,3-c]pyridin-2-yl]-piperidine-1-carboxylic acid tert-butyl ester] | 706 nM |
| CC(C)(C)OC(=O)N1CCC([C@@H]2Cc3cc(-c4ccc(S(C)(=O)=O)cn4)ccc3O2)CC1 [Example 71, (S)-4-[5-(5-Methanesulfonyl-pyridin-2-yl)-2,3-dihydro-benzofuran-2-yl]-piperidine-1-carboxylic acid tert-butyl ester] | 11 nM |

Now from value to molecule:

| EC50 | SMILES |
| --- | --- |
| 410 nM | CC(C)(C)OC(=O)N1CCC(C2Cc3cc(-c4cccnc4)ncc3O2)CC1 (stereo not shown) [Example 45, 4-(5-Pyridin-3-yl-2,3-dihydro-furo[2,3-c]pyridin-2-yl)-piperidine-1-carboxylic acid tert-butyl ester] |
| 53 nM | CC(C)(C)OC(=O)N1CCC(C2Cc3cc(-c4ccc(CS(C)(=O)=O)cn4)ccc3O2)CC1 (stereo not shown) [Example 48, 4-[5-(5-Methanesulfonylmethyl-pyridin-2-yl)-2,3-dihydro-benzofuran-2-yl]-piperidine-1-carboxylic acid tert-butyl ester] |
| 161 nM | CC(C)(C)OC(=O)N1CCC(C2Cc3cc(-c4ccnnc4)ccc3O2)CC1 (stereo not shown) [Example 50, 4-(5-Pyridazin-4-yl-2,3-dihydro-benzofuran-2-yl)-piperidine-1-carboxylic acid tert-butyl ester] |
| 49 nM | Cc1cc(-c2cc3c(cn2)OC(C2CCN(C(=O)OC(C)(C)C)CC2)C3)ccn1 (stereo not shown) [Example 52, 4-[5-(2-Methyl-pyridin-4-yl)-2,3-dihydro-furo[2,3-c]pyridin-2-yl]-piperidine-1-carboxylic acid tert-butyl ester] |
| 265 nM | CC(C)(C)OC(=O)N1CCC(C2Cc3cc(-c4ccnnc4)ncc3O2)CC1 (stereo not shown) [Example 54, 4-(5-Pyridazin-4-yl-2,3-dihydro-furo[2,3-c]pyridin-2-yl)-piperidine-1-carboxylic acid tert-butyl ester] |
| 133 nM | Cn1cc(-c2cc3c(cn2)OC(C2CCN(C(=O)OC(C)(C)C)CC2)C3)ccc1=O (stereo not shown) [Example 58, 4-[5-(1-Methyl-6-oxo-1,6-dihydro-pyridin-3-yl)-2,3-dihydro-furo[2,3-c]pyridin-2-yl]-piperidine-1-carboxylic acid tert-butyl ester] |
| 36 nM | CC(C)OC(=O)N1CCC(C2Cc3cc(-c4ccc(CS(C)(=O)=O)cc4)ncc3O2)CC1 (stereo not shown) [Example 62, 4-[5-(4-Methanesulfonylmethyl-phenyl)-2,3-dihydro-furo[2,3-c]pyridin-2-yl]-piperidine-1-carboxylic acid isopropyl ester] |
| 26 nM | CC(C)S(=O)(=O)c1ccc(-c2cc3c(cn2)OC(C2CCN(C(=O)OC(C)(C)C)CC2)C3)cc1 (stereo not shown) [Example 65, 4-{5-[4-(Propane-2-sulfonyl)-phenyl]-2,3-dihydro-furo[2,3c]pyridin-2-yl}-piperidine-1-carboxylic acid tert-butyl ester] |
| 575 nM | Cn1cc(-c2cc3c(cn2)OC(C2CCN(C(=O)OC(C)(C)C)CC2)C3)cn1 (stereo not shown) [Example 68, 4-[5-(1-Methyl-1H-pyrazol-4-yl)-2,3-dihydro-furo[2,3-c]pyridin-2-yl]-piperidine-1-carboxylic acid tert-butyl ester] |
| 162 nM | CC(C)(C)OC(=O)N1CCC(C2Cc3cc(-n4ccnc4)ncc3O2)CC1 (stereo not shown) [Example 69, 4-(5-Imidazol-1-yl-2,3-dihydro-furo[2,3-c]pyridin-2-yl)-piperidine-1-carboxylic acid tert-butyl ester] |
